In article PMC2746281 (PLoS ONE, 2009):

Key:
Hck = target: T1, Hck (Homo sapiens, UniProt P08631); assay: Recombinant kinase ELISA assay, Hck; assay type: biochemical; conditions: recombinant human enzyme; ELISA-based assay, poly(Glu,Tyr 4:1) substrate
T1 construct: Hck (2-526; BC014435); 6xHN (N); made in house; host or cells: baculovirus, Sf9 insect cells
Procedure: (§1) Full details for the generation of recombinant human KIT intracellular domain and other protein kinases (including Lyn, platelet derived growth factor receptor β, epidermal growth factor receptor, fibroblast growth factor receptor 1, Src, HCK, PYK, FES, Btk, Bmx, c-Ret, c-Fms, Syk, and c-Met) are provided in the Supplemental Methods (see Supporting Information; Methods S1). Experiments on ABL1, Akt1, protein kinase C-α, insulin-like growth factor receptor 1, and Pim1 were carried out by Proqinase (Germany). All other recombinant protein kinases were performed in-house using an enzyme-linked immunoassay; experimental details are provided in the Supplemental Methods (see Supporting Information; Methods S1).
(§2) The sequences encoding PDGF receptor β (residues 554–1106; GenBank accession no. BC032224), Lyn B (2–583; accession no. BC059394), fibroblast growth factor receptor 1 (572–959; accession no. BC018128), Src (2–536; accession no. BC011566), Btk (2–659; accession no. BC109079), Bmx (2–675; accession no. BC016652), c-Ret (713–1114; accession no. BC004257), c-Fms (538–972; BC047531), Syk (2–612; BC011399), Hck (2-526; accession no. BC014435), Fes (2-822; accession no. BC035357), PYK2 (2-1006; accession no. BC042599) and c-Met (949–1398; accession no. lifeseq3489592) were amplified by PCR from IMAGE cDNA clones purchased from Openbiosystems. […]

[1] = tested on: Δ27-expressing Ba/F3 cells; assay: Ba/F3 Δ27 tumour model in nude mice; assay type: in vivo; conditions: for average tumour volume increase: days 14 to 25, tumours 40 mm^3, vehicle 1200%; for animals with no detectable tumours at day 25: n = 8 per group
Procedure: Nude mice were gamma-irradiated and implanted after 24 hours with Δ27-expressing Ba/F3 cells by subcutaneous injection.
placebo (vehicle control); or untreated (n = 8 per group). […]
Female MBRI Nu/Nu mice (7 weeks old) (Janvier, France) were housed under specific pathogen-free conditions at 20±1°C with a 12 hours light/12 hours dark cycle and ad libitum access to food and filtered water. The mice were allowed to acclimatise to the study conditions for 10 to 20 days prior to experiments. All animal experiments were performed according to Centre national de la recherche scientifique (CNRS) ethical guidelines of animal experimentation. […] The cells were centrifuged and resuspended at 5×10^6 or 7.5×10^6 cells/ml in phosphate-buffered saline. Mice were treated with 5 Gy of gamma radiation and after 24 hours they were injected in the right flank with 1.5×10^6 Δ27 Ba/F3 cells. […] For all animals, body weight was measured on the day of injection and every 5 days thereafter, with the tumour's size measured via callipers every 5 days during the treatment period for estimation of tumour volume. During the predose period and for 2 weeks post-treatment, the animals were checked for mortality or signs of morbidity once a day, increasing to twice a day checks during the treatment period.
Survival in the in vivo mouse studies was assessed by Kaplan-Meier analysis using GraphPad Prism (GraphPad Software, Inc. USA) with comparison of survival curves performed by the logrank Mantel-Cox test. The appropriate Wilcoxon or Kruskall-Wallis tests were used for group comparison of tumour volumes and BMMC migration.

[2] = target: Fibroblast growth factor receptor 1 (Homo sapiens, UniProt P11362); assay: Ba/F3 cell proliferation (WST-1), FGFR1; parameters: expressed in transfected cells; host or cells: Ba/F3 (general description; not repeated for this kinase); conditions: Ba/F3 cells expressing the enzyme, read-out: Cell-based assay IC50, Fibroblast growth factor receptor 1
Solubility = assay type: physicochemical
From the text: The chemical name is 4-(4-methylpiperazin-1-ylmethyl)-N-[4-methyl-3-(4-pyridin-3ylthiazol-2-ylamino) phenyl]benzamide-mesylate methane sulfonic acid salt, and the chemical formula is C28H30N6OS·CH4O3S (Figure 1A). […] Fresh dilutions of masitinib were made for each experiment. The imatinib used in this study was purchased from Sequoia Research (UK).

Ba/F3 cells = assay: IL-3-stimulated proliferation of Ba/F3 cells expressing human wild-type KIT; assay type: cell-based; conditions: Mus musculus, BaF3, read-out: IC50 for inhibition of IL-3-stimulated proliferation
Procedure: Cells were grown for 48 hours at 37°C and then incubated with 10 µl/well of WST-1 reagent (Roche Applied Science, France) for 3 hours at 37°C. The amount of formazan dye formed was quantified by its absorbance at 450 nm using a scanning multiwell spectrophotometer (MultiSkan MS, Thermo-LabSystems, France). A blank well without cells was used as a background control for the spectrophotometer and all assays were performed in triplicate.

[3] = target: T2, Proline-rich Tyrosine kinase (FAK2/PYK2) (Homo sapiens, UniProt Q14289); assay: Recombinant kinase ELISA assay, PYK2; assay type: biochemical; conditions: recombinant human enzyme; ELISA-based assay, poly(Glu,Tyr 4:1) substrate
T2 construct: PYK2 (2-1006; BC042599); 6xHN (N); made in house; host or cells: baculovirus, Sf9 insect cells
Procedure: as §1, §2

Jak3 = target: T3, Jak3 (Homo sapiens, UniProt P52333); assay: Ba/F3 cell proliferation (WST-1), Jak3; conditions: Ba/F3 cells expressing the enzyme, read-out: Cell-based assay IC50, Jak3
T3 construct: expressed in transfected cells; host or cells: Ba/F3

[4] = target: Epidermal growth factor receptor (Homo sapiens, UniProt P00533); assay: Ba/F3 cell proliferation (WST-1), EGFR; conditions: Ba/F3 cells expressing the enzyme, read-out: Cell-based assay IC50, Epidermal growth factor receptor
Epidermal growth factor receptor, sequence (P00533 25-1210): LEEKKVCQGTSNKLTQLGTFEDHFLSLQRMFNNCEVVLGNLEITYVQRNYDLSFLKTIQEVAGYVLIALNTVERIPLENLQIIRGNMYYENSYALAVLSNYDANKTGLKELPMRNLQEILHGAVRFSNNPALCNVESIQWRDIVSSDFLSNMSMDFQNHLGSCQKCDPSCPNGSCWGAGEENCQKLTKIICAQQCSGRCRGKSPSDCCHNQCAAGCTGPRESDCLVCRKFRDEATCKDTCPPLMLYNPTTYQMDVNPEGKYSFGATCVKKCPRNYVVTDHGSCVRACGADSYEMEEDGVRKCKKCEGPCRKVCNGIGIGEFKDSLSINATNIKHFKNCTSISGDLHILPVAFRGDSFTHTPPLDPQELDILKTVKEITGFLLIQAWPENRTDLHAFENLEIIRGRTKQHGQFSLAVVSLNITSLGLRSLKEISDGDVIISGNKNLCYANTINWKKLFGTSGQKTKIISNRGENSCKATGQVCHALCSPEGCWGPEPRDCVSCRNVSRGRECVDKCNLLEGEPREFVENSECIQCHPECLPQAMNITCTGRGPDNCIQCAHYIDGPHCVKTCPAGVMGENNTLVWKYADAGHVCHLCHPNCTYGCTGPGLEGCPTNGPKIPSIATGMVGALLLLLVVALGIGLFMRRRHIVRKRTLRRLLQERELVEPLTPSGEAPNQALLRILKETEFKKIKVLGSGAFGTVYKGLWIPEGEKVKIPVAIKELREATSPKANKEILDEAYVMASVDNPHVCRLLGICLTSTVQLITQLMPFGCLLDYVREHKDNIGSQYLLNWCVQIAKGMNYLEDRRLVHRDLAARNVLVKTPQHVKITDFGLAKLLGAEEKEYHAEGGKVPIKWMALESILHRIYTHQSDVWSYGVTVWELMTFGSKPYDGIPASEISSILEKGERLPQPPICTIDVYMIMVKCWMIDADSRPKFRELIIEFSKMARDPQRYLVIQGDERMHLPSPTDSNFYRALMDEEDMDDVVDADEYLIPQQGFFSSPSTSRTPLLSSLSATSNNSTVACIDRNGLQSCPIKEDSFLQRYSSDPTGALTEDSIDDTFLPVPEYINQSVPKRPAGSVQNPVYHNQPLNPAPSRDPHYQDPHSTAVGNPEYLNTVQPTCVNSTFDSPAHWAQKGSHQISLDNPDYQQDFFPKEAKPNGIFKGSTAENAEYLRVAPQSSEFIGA

T3 sequence (P52333 whole entry, species assumed): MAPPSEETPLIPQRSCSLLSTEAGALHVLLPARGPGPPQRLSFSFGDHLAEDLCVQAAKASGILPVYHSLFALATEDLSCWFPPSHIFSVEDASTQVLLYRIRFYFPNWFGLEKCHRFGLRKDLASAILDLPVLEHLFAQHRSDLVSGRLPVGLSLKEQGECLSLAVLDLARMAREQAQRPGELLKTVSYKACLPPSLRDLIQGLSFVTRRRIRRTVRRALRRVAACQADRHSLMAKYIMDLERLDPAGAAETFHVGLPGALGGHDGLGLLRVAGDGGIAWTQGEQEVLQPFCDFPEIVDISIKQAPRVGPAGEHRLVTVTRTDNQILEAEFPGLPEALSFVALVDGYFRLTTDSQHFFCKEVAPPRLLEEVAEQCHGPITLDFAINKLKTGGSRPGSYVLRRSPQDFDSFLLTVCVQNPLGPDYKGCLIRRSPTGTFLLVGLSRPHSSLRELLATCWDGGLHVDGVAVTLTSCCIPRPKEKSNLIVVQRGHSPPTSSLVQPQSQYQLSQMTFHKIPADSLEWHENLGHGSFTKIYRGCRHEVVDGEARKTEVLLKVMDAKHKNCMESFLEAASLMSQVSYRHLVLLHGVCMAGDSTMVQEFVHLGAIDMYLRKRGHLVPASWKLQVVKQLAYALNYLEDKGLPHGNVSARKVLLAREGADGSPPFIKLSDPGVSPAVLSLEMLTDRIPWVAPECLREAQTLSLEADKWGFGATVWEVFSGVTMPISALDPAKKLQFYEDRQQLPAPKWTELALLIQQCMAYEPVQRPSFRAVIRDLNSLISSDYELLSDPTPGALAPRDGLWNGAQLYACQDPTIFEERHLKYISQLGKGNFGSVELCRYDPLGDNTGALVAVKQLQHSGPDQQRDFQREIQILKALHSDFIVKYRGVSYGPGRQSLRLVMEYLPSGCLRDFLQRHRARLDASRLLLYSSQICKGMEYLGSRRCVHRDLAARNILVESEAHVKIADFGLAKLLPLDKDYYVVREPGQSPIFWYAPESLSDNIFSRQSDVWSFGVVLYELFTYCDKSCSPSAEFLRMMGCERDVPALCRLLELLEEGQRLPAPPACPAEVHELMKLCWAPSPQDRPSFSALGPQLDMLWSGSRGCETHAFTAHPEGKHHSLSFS
T1 sequence (P08631 23-526 limits assumed): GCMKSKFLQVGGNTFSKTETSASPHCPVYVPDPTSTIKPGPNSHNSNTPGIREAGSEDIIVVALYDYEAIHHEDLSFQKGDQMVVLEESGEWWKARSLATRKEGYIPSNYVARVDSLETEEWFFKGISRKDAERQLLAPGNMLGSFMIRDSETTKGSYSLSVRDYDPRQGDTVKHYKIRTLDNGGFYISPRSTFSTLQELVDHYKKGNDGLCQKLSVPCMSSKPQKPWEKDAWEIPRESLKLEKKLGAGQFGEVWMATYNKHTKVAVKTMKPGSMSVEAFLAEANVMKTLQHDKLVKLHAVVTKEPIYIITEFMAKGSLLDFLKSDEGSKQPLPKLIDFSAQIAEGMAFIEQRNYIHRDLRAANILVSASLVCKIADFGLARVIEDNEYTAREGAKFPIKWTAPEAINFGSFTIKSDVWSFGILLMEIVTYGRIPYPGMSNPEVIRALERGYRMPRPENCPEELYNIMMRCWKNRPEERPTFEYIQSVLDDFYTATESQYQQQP
Fibroblast growth factor receptor 1, sequence (P11362 22-822): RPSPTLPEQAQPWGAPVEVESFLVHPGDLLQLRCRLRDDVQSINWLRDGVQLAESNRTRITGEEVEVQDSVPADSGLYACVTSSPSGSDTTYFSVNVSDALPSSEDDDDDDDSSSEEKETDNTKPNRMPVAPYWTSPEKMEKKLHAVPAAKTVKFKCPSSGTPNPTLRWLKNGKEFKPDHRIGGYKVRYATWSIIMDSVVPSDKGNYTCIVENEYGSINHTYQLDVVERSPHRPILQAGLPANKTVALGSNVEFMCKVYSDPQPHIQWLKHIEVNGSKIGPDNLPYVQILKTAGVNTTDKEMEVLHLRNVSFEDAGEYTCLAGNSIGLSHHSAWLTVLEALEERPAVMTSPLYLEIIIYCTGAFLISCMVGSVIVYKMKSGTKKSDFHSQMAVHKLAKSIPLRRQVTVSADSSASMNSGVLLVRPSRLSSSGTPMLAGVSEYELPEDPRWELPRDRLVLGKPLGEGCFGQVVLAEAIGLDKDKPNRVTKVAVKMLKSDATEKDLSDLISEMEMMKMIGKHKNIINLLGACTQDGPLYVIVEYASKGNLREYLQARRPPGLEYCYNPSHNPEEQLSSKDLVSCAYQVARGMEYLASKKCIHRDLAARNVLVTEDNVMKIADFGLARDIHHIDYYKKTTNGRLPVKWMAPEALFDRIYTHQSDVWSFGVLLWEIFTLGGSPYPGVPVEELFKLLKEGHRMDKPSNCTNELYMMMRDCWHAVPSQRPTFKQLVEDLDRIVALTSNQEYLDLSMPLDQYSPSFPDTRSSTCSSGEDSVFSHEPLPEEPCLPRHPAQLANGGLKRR
T2 sequence (Q14289 2-1006): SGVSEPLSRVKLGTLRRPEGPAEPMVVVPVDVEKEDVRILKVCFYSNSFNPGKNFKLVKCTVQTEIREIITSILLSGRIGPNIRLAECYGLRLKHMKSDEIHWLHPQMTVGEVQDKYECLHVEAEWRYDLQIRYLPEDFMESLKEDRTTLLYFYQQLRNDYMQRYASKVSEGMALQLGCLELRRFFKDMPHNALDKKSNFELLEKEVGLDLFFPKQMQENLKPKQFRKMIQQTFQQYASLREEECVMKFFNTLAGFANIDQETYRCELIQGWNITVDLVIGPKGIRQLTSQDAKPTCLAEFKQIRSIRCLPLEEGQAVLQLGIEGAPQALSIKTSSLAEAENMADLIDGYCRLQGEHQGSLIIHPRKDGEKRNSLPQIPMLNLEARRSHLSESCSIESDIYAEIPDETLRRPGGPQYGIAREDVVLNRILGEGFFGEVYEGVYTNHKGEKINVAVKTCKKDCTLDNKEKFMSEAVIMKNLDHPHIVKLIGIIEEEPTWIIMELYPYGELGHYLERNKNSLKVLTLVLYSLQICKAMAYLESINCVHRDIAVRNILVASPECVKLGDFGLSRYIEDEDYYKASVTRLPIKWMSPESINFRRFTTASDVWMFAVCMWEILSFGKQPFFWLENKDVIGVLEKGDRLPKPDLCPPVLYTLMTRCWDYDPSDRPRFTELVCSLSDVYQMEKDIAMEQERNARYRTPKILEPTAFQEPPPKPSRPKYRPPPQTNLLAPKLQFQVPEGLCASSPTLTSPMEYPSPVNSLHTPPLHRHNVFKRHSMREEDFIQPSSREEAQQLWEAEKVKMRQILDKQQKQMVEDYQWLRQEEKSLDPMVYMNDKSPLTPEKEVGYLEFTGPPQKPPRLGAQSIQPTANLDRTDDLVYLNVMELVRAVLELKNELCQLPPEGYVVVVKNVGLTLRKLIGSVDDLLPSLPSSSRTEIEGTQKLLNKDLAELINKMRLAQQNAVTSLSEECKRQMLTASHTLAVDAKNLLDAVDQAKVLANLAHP

With `CS(=O)(=O)O.CS(=O)(=O)O.Cc1ccc(NC(=O)c2ccc(CN3CCN(C)CC3)cc2)cc1Nc1nc(-c2cccnc2)cs1` [masitinib, 4-(4-methylpiperazin-1-ylmethyl)-N-[4-methyl-3-(4-pyridin-3ylthiazol-2-ylamino)phenyl]benzamide-mesylate methane sulfonic acid salt] the IC50 (Hck) was 2 ± 0.2 µM, the “effect on total body weight” value ([1]; 30 mg/kg intraperitoneal twice daily for 25 days) was “did not affect the total body weight” and the tumour growth ([1]; 30 mg/kg intraperitoneal twice daily for 25 days, tumours 400 mm^3) was “Tumour growth stabilised”. The median survival time ([1]; 30 mg/kg intraperitoneal twice daily for 25 days, tumours 400 mm^3, control 30.5 days) was 42 days, the “average tumour volume, placebo group compared to masitinib treated group” value ([1]; 30 mg/kg intraperitoneal twice daily, after 10 days of treatment (day 29)) was about 4 fold and the “average tumour volume increase” value ([1]; 30 mg/kg oral twice daily) was 355%. The “animals with no detectable tumours at day 25” value ([1]; 30 mg/kg oral twice daily) was “one”, the “average tumour volume increase” value ([1]; 45 mg/kg oral twice daily) was 154% and the “animals with no detectable tumours at day 25” value ([1]; 45 mg/kg oral twice daily) was “two”. For the same compound, the tumour growth ([1]; 100 mg/kg oral twice daily, 5 days, tumours 500 mm^3 (data not shown)) was “tumour growth was blocked”, the “effect on body weight gain” value ([1]; 10, 30, or 45 mg/kg oral twice daily) was “did not affect body weight gain” and the IC50 [2] was 7 ± 1.9 µM. For the same compound, the solubility (Solubility; 0.1 M HCl) was “freely soluble”, the solubility (Solubility; 0.1 M NaOH) was “practically insoluble” and the solubility (Solubility; dimethylsulfoxide) was “freely soluble”. For the same compound, the solubility (Solubility; ethanol) was “slightly soluble”, the solubility (Solubility; n-hexane) was “practically insoluble” and the solubility (Solubility; propylene glycol) was “slightly soluble”. The solubility (Solubility; water) was “soluble”, the IC50 (Ba/F3 cells) was over 5 µM and the IC50 [3] was over 10 µM. For the same compound, the IC50 (Jak3) was 10 ± 0.5 µM and the IC50 [4] was 7 ± 0.8 µM.
